The target of the assay is Mitogen-activated protein kinase kinase kinase kinase 1 (Homo sapiens, UniProt Q92918). As to the kind of experiment: Enzymatic Activity Assay: Recombinant HPK1 kinase domain produced via baculovirus infection of insect cells was obtained from Proteros (Proteros Biostructures #PR-0322) and was pre-activated in the presence of 2 mM ATP (Sigma-Aldrich, cat #GE27-2056-01) and 2 mM magnesium chloride for 16 hours at 4° C. The protein reaction mixture was then loaded to a desalting column (Thermo Fisher Scientific, Cat #89889) to remove excess ATP. HPK1 was eluted with buffer containing 20 mM Tris (2-Amino-2-(hydroxymethyl)propane-1,3-diol) pH 8.0, 150 mM NaCl, 2 mM dithiothreitol and 5% glycerol, and was frozen at −80° C. for later use. HPK1 dual phosphorylation was confirmed by mass spectrometry.Ten nanoliters of test compounds dissolved in DMSO at various concentrations were dispensed into a 384-well ProxiPlate (PerkinElmer #6008289). Five microliters of a solution of recombinant HPK1 diluted in HPK1 kinase assay buffer (50 mM BES [N,N-Bis(2-hydroxyethyl)-2-aminoethanesulfonic acid], pH 7.0; 10 mM magnesium chloride; 0.01% Triton X-100; 1 mM dithiothreitol; 0.01% bovine serum albumin; 0.1 mM sodium orthovanadate) was added to the compound-containing plate and was incubated for 15 minutes at 25° C. Five microliters of a mixture of ATP (Sigma-Aldrich #A6559) and peptide substrate STK S1 (Cisbio #61ST1BLC) diluted in HPK1 kinase assay buffer was then added to start the reaction. […].
Mitogen-activated protein kinase kinase kinase kinase 1, sequence (Q92918 whole entry, the tested form may be a part): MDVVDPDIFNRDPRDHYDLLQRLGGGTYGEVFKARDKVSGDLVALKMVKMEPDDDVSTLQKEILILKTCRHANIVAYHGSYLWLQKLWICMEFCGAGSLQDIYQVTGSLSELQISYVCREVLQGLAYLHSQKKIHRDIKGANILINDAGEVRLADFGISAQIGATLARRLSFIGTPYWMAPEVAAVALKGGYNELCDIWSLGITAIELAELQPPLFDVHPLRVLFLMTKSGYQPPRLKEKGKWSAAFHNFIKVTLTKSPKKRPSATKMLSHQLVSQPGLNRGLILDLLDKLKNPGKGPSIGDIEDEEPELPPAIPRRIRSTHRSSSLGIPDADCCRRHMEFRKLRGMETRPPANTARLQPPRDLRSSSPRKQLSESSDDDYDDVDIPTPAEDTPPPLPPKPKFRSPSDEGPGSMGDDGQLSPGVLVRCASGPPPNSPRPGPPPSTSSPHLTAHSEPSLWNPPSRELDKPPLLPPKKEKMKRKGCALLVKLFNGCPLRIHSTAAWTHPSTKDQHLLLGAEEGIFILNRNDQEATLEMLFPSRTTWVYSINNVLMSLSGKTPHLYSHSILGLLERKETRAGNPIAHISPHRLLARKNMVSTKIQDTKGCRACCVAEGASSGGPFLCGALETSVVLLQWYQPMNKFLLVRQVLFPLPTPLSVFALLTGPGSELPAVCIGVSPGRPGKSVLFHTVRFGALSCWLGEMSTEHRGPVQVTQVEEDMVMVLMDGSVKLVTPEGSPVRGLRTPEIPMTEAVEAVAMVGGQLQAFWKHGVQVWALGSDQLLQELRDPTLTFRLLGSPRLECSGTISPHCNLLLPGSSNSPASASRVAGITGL

Structures are written as SMILES.

In general, IC50 refers to the point on the concentration scale where inhibition reaches its midpoint.

`CC(C)n1cnc2cc(-c3ccc4c(c3)N([C@H]3C[C@@H](N5CCC(C)(C)C5)C3)C(=O)C43CCN(C(=O)[C@H]4CC[C@@H](C)O4)CC3)nc(Nc3ccncc3F)c21`: the half-inhibitory concentration (IC50) was determined as 0.2 nM. For the compound `CC(C)n1cnc2cc(-c3ccc4c(c3)N([C@H]3C[C@@H](N5CCC(C)(C)C5)C3)C(=O)C43CCN(C(=O)[C@@H]4OCC[C@@H]4C)CC3)nc(Nc3ccncc3F)c21`, the half-inhibitory concentration (IC50) came to 0.3 nM.

Values taken from ChEMBL document CHEMBL5728586, “Substituted 6-azabenzimidazole compounds” (2021).
